Measurements: patent US12180252B2, “Peptide derived from PEP27 peptide and uses thereof” (priority 2021, dated 2024)
Converted amounts (≈) assume the structure as drawn. “And” between values parts separate entries of the source, which are not always exact repeats. Equal entries are not always repeated. Where two headings read alike, the source gives them in different places. Where a SMILES comes first, the peptide text is derived from it.

How the values were obtained:
[1] = system: Sa. typhimurium CCARM8007; format: cell-based, Salmonella typhimurium; conditions: Sa. typhimurium CCARM8007, antibiotics-tolerant; 37° C., 18 hours
Protocol: (§1) In order to evaluate the antimicrobial activity of the peptides prepared by the method of above 1, a minimal inhibitory concentration (MIC) value as the minimum concentration of a peptide, in which cells are not divided, was measured.
(§2) Specifically, the strains shown in Table 3 below were purchased, cultured in a medium having a constitutional composition suitable for each strain to a mid-log phase, and then diluted to a concentration of 2×10^4 cells/100 μl to prepare the product on a micro-titration plate (Nunc, USA). Then, PEP27, PEP27-1, PEP27-2 or PEP27-5 peptide synthesized in the above 1 was added to each well by serial dilution ½ times, followed by incubation at 37° C. for 18 hours.

[2] = system: Sa. typhimurium CCARM8009; format: cell-based, Salmonella typhimurium; conditions: Sa. typhimurium CCARM8009, antibiotics-tolerant; 37° C., 18 hours
Protocol: as §1, §2

Sa. typhimurium KCTC1926 = format: cell-based, Salmonella typhimurium
Protocol: as §1, §2

E. coli CCARM1229 = format: cell-based, Escherichia coli; conditions: 37° C., 24 hours
S. aureus CCARM3090 = format: cell-based, Staphylococcus aureus; conditions: 37° C., 24 hours
From the text: (§3) Biofilms may form on a wide variety of surfaces, including living or dead surfaces, and biofilm-associated bacteria are more tolerant to antibiotics than planktonic bacterial cells, making them antibiotic-resistant. To assess the efficacy of PEP27-2 against biofilms, we observed the anti-biofilm activity of PEP27-2 in S. aureus (ATCC 25923 and CCARM 3090), E. coli (ATCC 25922 and CCARM 1238), and P. aeruginosa (ATCC 27853 and 4891).
(§4) Specifically, among the strains listed in Table 3 above, Staphylococcus aureus, E. coli and Pseudomonas erujinosa, respectively, were cultured in each medium to a mid-log phase, diluted to a cell concentration of 5×10^4 cells/100 μl, and then, inoculated into a micro-plate (SPL). Then, PEP27-2 peptide was diluted 1/10 times with 10 mM PBS solution (pH 7.2) and 10 μl of the solution was added to each well, followed by incubation at 37° C. for 24 hours. After completely removing the supernatant, the solution was fixed with 100% methanol for 15 minutes, stained with a crystal violet dye solution for 1 hour, washed 3 times, and then dissolved in 95% ethanol, followed by measuring the absorbance at a wavelength of 595 nm using a micro titration plate reader, thereby determining a biofilm minimal inhibitory concentration value for each strain.

S. aureus CCARM3518 = format: cell-based, Staphylococcus aureus; conditions: 37° C., 24 hours
From the text: as §3, §4

S. aureus ATCC25923 = format: cell-based, Staphylococcus aureus
From the text: as §3, §4

S. aureus CCARM3089 = format: cell-based, Staphylococcus aureus; conditions: 37° C., 24 hours
From the text: as §3, §4

S. aureus ATCC29213 = format: cell-based, Staphylococcus aureus
From the text: as §3, §4

HaCaT and MCF-7 cells = experiment: MTT cytotoxicity; format: cell-based, human; conditions: for toxicity relative to the antimicrobial concentration range: mouse erythrocytes and human cells
Protocol: Specifically, Thiazolyl blue tetrazolium bromide (MTT, Merck KGaA) was used to determine the cytotoxicity of PEP27 and its analogs against HaCaT (human keratinocyte […], n=4 per condition) and MCF-7 (human breast adenocarcinoma, n=3 per condition) cells. The cells were cultured in Dulbecco's modified Eagle's medium (DMEM) supplemented with 10 heat-inactivated fetal bovine serum (FBS, Gibco, Grand Island, NY, USA) and 1% penicillin-streptomycin (Gibco) at a density of 2×10^4 cells/well (96-well plate). Peptides were then added at various concentrations and incubated for 24 h at 37° C., after which MTT (final concentration, 0.5 mg/mL) was added to each well and incubated for 4 h. The formazan product was solubilized in DMSO, and the absorbance at 570 nm was measured to […] cytotoxicity. Cells treated with 0.1% Triton X-100 were used as the 100% cytotoxic control sample.

E. coli ATCC27325 = format: cell-based, Escherichia coli
From the text: as §3, §4

E. coli ATCC25922 = format: cell-based, Escherichia coli
From the text: as §3, §4

E. coli CCARM1238 = format: cell-based, Escherichia coli; conditions: 37° C., 24 hours
From the text: as §3, §4

[3] = system: red blood cells of a rat (Balb/c); conditions: 37° C., 1 hour
Protocol: In order to compare the cytotoxicity of the peptides prepared by the method of above 1, erythrocyte hemolytic activity of each of the synthesized peptides was measured.
Specifically, red blood cells of a rat (Balb/c, 6 weeks old, female) were diluted with PBS (pH 7.0) to a concentration of 8%, and PEP27, PEP27-1, PEP27-2 and PEP27-5 peptides were used for treatment of the cells at concentrations of 3.13, 6.25, 12.5, 25.01 50.0 and 100.0 μM/well, respectively, followed by reaction at 37° C. for 1 hour. Then, an amount of hemoglobin contained in the supernatant obtained by centrifugation at 1,000×g was determined by measuring the absorbance at a wavelength of 414 nm. As a control which is a standard for the degree of cell destruction, the absorbance of the obtained supernatant was measured after treatment using 1% Triton X-100 (Sigma, USA) and reaction at 37° C. for 1 hour. With reference to 100% erythrocytes hemolysis activity, hemolysis of each peptide was calculated from the measured absorbance using Equation 1 below. Erythrocyte destruction ability (%)=(Absorbance A−Absorbance B)/(Absorbance C−Absorbance B)×100 [Equation 1]
(wherein, absorbance A represents the absorbance of a reaction solution treated with each peptide measured at a wavelength of 414 nm; absorbance B represents the absorbance of a reaction solution treated with PBS measured at a wavelength of 414 nm; and absorbance C represents the absorbance of a reaction solution treated with 1% Triton X-100 measured at a wavelength of 414 nm).

[4] = Peptide concentration 100 μM, 100% = 1% Triton X-100

SMILES | Minimal inhibitory concentration [1] [µM] | Minimal inhibitory concentration [2] [µM] | Biofilm minimal inhibitory concentration (E. coli CCARM1229) [µM] | Biofilm minimal inhibitory concentration (S. aureus CCARM3090) [µM] | Biofilm minimal inhibitory concentration (S. aureus CCARM3518) [µM] | Biofilm minimal inhibitory concentration (S. aureus CCARM3089) [µM] | toxicity relative to the antimicrobial concentration range (HaCaT and MCF-7 cells) | Biofilm minimal inhibitory concentration (E. coli CCARM1238) [µM] | Erythrocyte destruction ability ([3]; Peptide concentration 3.13 μM) [%] | Erythrocyte destruction ability ([3]; Peptide concentration 6.25 μM) [%] | Erythrocyte destruction ability ([3]; Peptide concentration 12.5 μM) [%] | Erythrocyte destruction ability ([3]; Peptide concentration 25 μM) [%] | Erythrocyte destruction ability ([3]; Peptide concentration 50 μM) [%] | Erythrocyte destruction ability [3, 4] | other results
CC[C@H](C)[C@H](NC(=O)CN)C(=O)NCC(=O)N[C@@H](C)C(=O)N[C@H](C(=O)N[C@@H](CC(C)C)C(=O)N[C@@H](CCCCN)C(=O)N[C@H](C(=O)N[C@@H](CC(C)C)C(=O)N[C@H](C(=O)N[C@H](C(=O)NCC(=O)N[C@@H](CC(C)C)C(=O)N1CCC[C@H]1C(=O)N[C@@H](C)C(=O)N[C@@H](CC(C)C)C(=O)N[C@H](C(=O)N[C@@H](CO)C(=O)N[C@@H](Cc1c[nH]c2ccccc12)C(=O)N[C@H](C(=O)N[C@@H](CCCCN)C(=O)N[C@@H](CCCNC(=N)N)C(=O)N[C@@H](CCCCN)C(=O)N[C@@H](CCCNC(=N)N)C(=O)N[C@@H](CCC(N)=O)C(=O)N[C@@H](CCC(N)=O)C(N)=O)[C@@H](C)CC)[C@@H](C)CC)[C@@H](C)O)[C@@H](C)O)C(C)C)C(C)C [Melittin, reference compound] | 4 (≈ 11.4 µg/mL) | 4 (≈ 11.4 µg/mL) | 4 | 4 | 8 | 4 | begins to show toxicity within the range of antibacterial activity | 4 | 27.33 | 49.41 | 69.75 | 83.99 | 97.76 | 99.17% | Minimal inhibitory concentration (Sa. typhimurium KCTC1926; Sa. typhimurium KCTC1926, Gram-negative, 37° C., 18 hours): 4 µM (≈ 11.4 µg/mL); Biofilm minimal inhibitory concentration (S. aureus ATCC25923; S. aureus ATCC25923, 37° C., 24 hours): 4 µM; Biofilm minimal inhibitory concentration (S. aureus ATCC29213; S. aureus ATCC29213, 37° C., 24 hours): 4 µM; Biofilm minimal inhibitory concentration (E. coli ATCC27325; E. coli ATCC27325, 37° C., 24 hours): 4 µM; Biofilm minimal inhibitory concentration (E. coli ATCC25922; E. coli ATCC25922, 37° C., 24 hours): 4 µM
CSCC[C@H](N)C(=O)N[C@@H](Cc1c[nH]c2ccccc12)C(=O)N[C@@H](CCCCN)C(=O)N[C@@H](Cc1c[nH]c2ccccc12)C(=O)N[C@@H](Cc1ccccc1)C(=O)N[C@@H](Cc1c[nH]cn1)C(=O)N[C@@H](CC(N)=O)C(=O)N[C@H](C(=O)N[C@@H](CC(C)C)C(=O)N[C@@H](CO)C(=O)N[C@@H](Cc1c[nH]c2ccccc12)C(=O)NCC(=O)N[C@@H](Cc1c[nH]c2ccccc12)C(=O)N[C@@H](CC(C)C)C(=O)N[C@@H](CC(C)C)C(=O)N[C@@H](C)C(=O)N[C@@H](CC(=O)O)C(=O)N[C@@H](CCCCN)C(=O)N[C@@H](CCCNC(=N)N)C(=O)N1CCC[C@H]1C(=O)N[C@@H](C)C(=O)N[C@@H](CCCNC(=N)N)C(=O)N[C@@H](CC(=O)O)C(=O)N[C@@H](Cc1ccc(O)cc1)C(=O)N[C@@H](CC(N)=O)C(=O)N[C@@H](CCCNC(=N)N)C(=O)N[C@@H](CCCCN)C(N)=O)C(C)C [PEP27-2] (H-MWKWFHNVLSWGWLLADKRPARDYNRK-NH2) | 4 (≈ 13.9 µg/mL) | 4 (≈ 13.9 µg/mL) | 8 | 4 | 4 | 4 | not toxic within the range of antimicrobial activity or 4×MIC concentration | 8 | 0 | 2.30 | 14.96 | 40.51 | 62.47 | 75.8% and 75.84% | Minimal inhibitory concentration (Sa. typhimurium KCTC1926; KCTC1926, 18 h): 8 µM (≈ 27.8 µg/mL); maximum percent biofilm inhibition (S. aureus ATCC25923; ATCC25923): 83.4%; Biofilm minimal inhibitory concentration (S. aureus ATCC25923; ATCC25923, 24 h): 4 µM; Biofilm minimal inhibitory concentration (S. aureus ATCC29213; ATCC29213, 24 h): 4 µM; cell viability (HaCaT and MCF-7 cells; 100 μM, 24 h, MTT, HaCaT and MCF-7 cells): 19%-23%; Biofilm minimal inhibitory concentration (E. coli ATCC27325; ATCC27325, 24 h): 8 µM; maximum percent biofilm inhibition (E. coli ATCC25922; ATCC25922): 91.8%; Biofilm minimal inhibitory concentration (E. coli ATCC25922; ATCC25922, 24 h): 8 µM
